Test results taken from PubChem BioAssay (NCI).
Where “and” joins values, the source holds several entries; their conditions need not be identical. Equal values may be shown once.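 All cell lines were grown in 96-well plates and treated with compound for 48 hours. The concentration for 50% growth inhibition is given as GI50. TGI marks complete inhibition of growth.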

What was measured:
Assay in all cases: NCI tumour cell line growth inhibition, 48 h
[1] = system: MDA-N
[2] = system: RXF-631 renal
[3] = system: DMS 114 small cell lung
[4] = system: M19-MEL melanoma
[5] = system: KM20L2 colon
[6] = system: DLD-1 colon
[7] = system: SNB-78 CNS
[8] = system: DMS 273 small cell lung
[9] = system: SN12K1 renal
[10] = system: P388/ADR leukemia
[11] = system: XF 498 CNS
[12] = system: P388 leukemia

SMILES | TGI [1] | TGI [2] | TGI [3] | TGI [4] | TGI [5] | TGI [6] | TGI [7] | TGI [8] | TGI [11] | further results
CC1CCc2c(c(CC3CC(=O)NC(=O)C3)nn2-c2ccccc2)C1 (centres undefined) | > 100 µM |  |  |  |  |  |  |  |  | 
CC(=O)O[C@H]1C(=O)[C@@]2(C)[C@H]([C@H](OC(=O)c3ccccc3)[C@@]3(O)C[C@H](O)C(C)=C1C3(C)C)[C@]1(OC(C)=O)CO[C@@H]1C[C@@H]2O | 17.1 µM |  |  |  |  |  |  |  |  | 
CC(C)(C)c1ccc(O)c(CN(Cc2cc(C(C)(C)C)ccc2O)C2CCCCC2)c1 | 28.1 µM |  |  |  |  |  |  |  |  | 
Cc1ccc(NC(=O)CC/C(CC(=O)C(C)(C)C)=N\Nc2ccc([N+](=O)[O-])cc2[N+](=O)[O-])cc1C |  | > 100 µM | > 100 µM | > 100 µM | > 100 µM | > 100 µM | > 100 µM |  |  | 
Nc1nc(N)c(N=Nc2ccc(C(=O)O)c(O)c2)c(N)n1 | > 100 µM |  |  |  |  |  |  |  |  | 
C=C1NC(=O)C(CC(C(=O)C(=O)Nc2c(C)cccc2C(C)(C)C)C(=O)c2ccc3ccccc3c2)C(=O)N1 (centres undefined) | > 100 µM |  |  |  |  |  |  |  |  | 
COc1ccc(/C=C\c2cc(OC)c(OC)c(OC)c2)c(O)c1O | < 0.0304 µM |  | 3.92 µM and 0.568 µM | 17.8 µM and 11.2 µM | 76.9 µM | > 85.8 µM | > 89.6 µM and 48.5 µM | 63.1 µM |  | GI50 [8]: 0.303 µM; TGI [9]: 1.08 µM; TGI [10]: 23.4 µM; GI50 [3]: 0.196 µM; GI50 [11]: 2.95 µM; GI50 [4]: 1.42 µM; TGI [12]: 4.57 µM; GI50 [5]: 26.6 µM; GI50 [6]: 1.52 µM; GI50 [7]: 1.86 µM
N#Cc1cc(NC(=O)c2ccccc2)c(=O)n2c1[nH]c1ccccc12 |  | > 100 µM | 95.5 µM | > 100 µM | > 100 µM | > 100 µM | > 100 µM | > 100 µM | > 100 µM | 
O=C1C2ON3c4ccccc4C(=O)C3(c3ccccc3)C2C(=O)N1c1ccccc1 (centres undefined) |  |  |  | > 100 µM | > 100 µM | > 100 µM | > 100 µM | > 100 µM | > 100 µM | 
Cc1c(C2Cc3ccccc3N2)c2ccccc2n1C (centres undefined) |  |  | > 100 µM | > 100 µM | > 100 µM | > 100 µM | > 100 µM | > 100 µM | > 100 µM | 
CCOC(=O)C1SC(=Nc2ccc(Cl)cc2C)N=C1C (centres undefined) |  | 71.4 µM | 35.3 µM | 43.7 µM | 32.1 µM | 35.9 µM | 76.7 µM | 66.9 µM | 40 µM | 
CC(CCCC1SCC2NC(=O)NC21)C(=O)O (centres undefined) | > 100 µM |  |  |  |  |  |  |  |  | 
C=C1C(=O)OC2CC3(C)CCCC(C)C3=CC12 (centres undefined) | 11.4 µM |  |  |  |  |  |  |  |  | 
COCOCC[C@@H]1CC=CC(NC(=O)OCc2ccccc2)C1/C=C/C(=O)CCC1OCCO1 (some centres undefined) |  |  | 86.5 µM | 43.3 µM | > 93.3 µM | 33.4 µM | > 100 µM | > 59.1 µM | > 100 µM | 
CN(C)CCNC(=O)c1cccc2ncc(-c3ccccc3)nc12 |  | > 82.5 µM | 26.6 µM | 29.5 µM | 38 µM | 44.9 µM | 40 µM | 17.8 µM |  | 
NNC(=S)Nc1cccc(Cl)c1 | > 100 µM |  |  |  |  |  |  |  |  | 
O=C(O)CCSC(=S)Nc1cccc(F)c1 |  |  | 51.8 µM | 88.8 µM | > 100 µM | > 100 µM | > 100 µM | > 100 µM |  | 
NC(=Nc1nc(-c2ccccn2)cc2ccccc12)c1ccccn1 | > 100 µM | 0.244 µM |  | 0.953 µM | > 100 µM | 0.378 µM | > 100 µM |  | 0.0644 µM | GI50 [8]: 0.0231 µM; GI50 [4]: 0.199 µM; GI50 [1]: 0.445 µM
C/C(CCn1[nH]c(=O)ccc1=O)=N\Nc1ccc([N+](=O)[O-])cc1[N+](=O)[O-] |  | > 100 µM | > 100 µM | > 100 µM | > 100 µM | > 100 µM | > 100 µM | > 100 µM | > 100 µM | 
CC1=NN(C(=O)c2ccncc2)C(=O)C1N=Nc1ccc2ccccc2c1 (centres undefined) | 10.2 µM |  |  |  |  |  |  |  |  | 
CC(=N)N(C)O |  | > 100 µM | 33.2 µM | > 100 µM | > 100 µM | > 100 µM | > 100 µM |  | > 100 µM | 
COC(=O)C1=C(C(=O)OC)C2OC1c1cc3ccccc3cc12 | 17.5 µM |  |  |  |  |  |  |  |  | 
COC(=O)C(C(=O)C(=O)Nc1ccc(OC)cc1[N+](=O)[O-])c1nc2cc(C)c(C)cc2[nH]c1=O (centres undefined) |  | > 100 µM | > 100 µM | > 100 µM | > 100 µM | > 100 µM | > 100 µM |  |  | 
CC1=C2[C@H](c3ccccc3)C3C=CC2(c2ccccc23)N(C(=O)C(c2ccccc2)c2ccccc2)C1=O (some centres undefined) |  |  | > 100 µM | > 100 µM | > 100 µM | > 100 µM |  | > 100 µM | > 100 µM | 
Cc1cc(C)nc(NS(=O)(=O)c2ccc(NC(=O)c3ccc(Cl)c4c(Nc5ccc(S(=O)(=O)N=C(N)N)cc5)c5ccccc5nc34)cc2)n1 |  |  | 93.6 µM |  | > 100 µM |  | > 100 µM | > 100 µM | > 100 µM | 
